# ± gives the expanded uncertainty stated by the source.
# Conditions: Crystal; DTA
compound,measurement,value
O=C(O)CCC(=O)O [butanedioic acid],Normal melting temperature,188 ± 1 °C

# — the NIST ThermoML archive (doi:10.1021/je900021g)
